Where two headings read alike, the source gives them in different places.
How the values were obtained:
[1] = biological target: T1, E. coli peptide deformylase (PDFEc) (Escherichia coli, UniProt P0A6K3); assay: Slow-binding inhibition of PDFEc, kobs as a function of inhibitor concentration; format: biochemical
[2] = biological target: T1, E. coli peptide deformylase (PDFEc); format: biochemical; settings: for Initial rate: AMT 500 µM; for remaining activity at 500 µM: read-out: % of control, AMT 500 µM
[3] = solvent dimethylformamide, 1 week post
[4] = solvent ethanol, more than 2 days incubation

T1 sequence (P0A6K3 whole entry): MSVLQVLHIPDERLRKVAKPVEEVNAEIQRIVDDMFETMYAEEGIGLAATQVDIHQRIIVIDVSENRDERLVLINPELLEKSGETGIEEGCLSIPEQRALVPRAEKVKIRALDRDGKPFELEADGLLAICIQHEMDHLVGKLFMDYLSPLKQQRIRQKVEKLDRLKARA

Nc1nnc(S)s1 [AMT, 2-amino-5-mercapto-1,3,4-thiadiazole]
enhancement of apparent binding affinity by the slow-binding step (Ki / Ki^*) [1]: about 30 fold | initial rate of the enzyme catalyzed reaction versus control ([2]; 500 µM AMT incubated in DMF for 30 min): barely lower than that of the control | Initial rate ([2]; solvent acetonitrile, more than 2 days incubation): 16.3 mOD min^−1 | Initial rate [2, 3]: 7.9 mOD min^−1 | Initial rate ([2]; solvent dimethylformamide, tested immediately): 17.0 mOD min^−1 | Initial rate ([2]; solvent dimethylsulfoxide, more than 2 days incubation): 15.9 mOD min^−1 | Initial rate [2, 4]: 16.9 mOD min^−1 | inhibitory effect on PDFEc ([2]; AMT freshly prepared in DMF, or dissolved in any other solvent and aged at 25 °C for any length of time): No inhibitory effect | inhibition of PDFEc ([2]; AMT incubated with 0.06% H2O2 in buffer): no inhibition | remaining activity at 500 µM [2, 3]: 47% | remaining activity at 500 µM [2, 4]: 100%
